The test system of data set [1] is human cytomegalovirus (HCMV). Description: Fluorescence decay assay against human cytomegalovirus. Type of data set: cell-based. The conditions noted are these: Human betaherpesvirus 5, 240 h; US3-6-EGFP-HCMV-AD169 in MRCS cells, 10 days of culture, GFP fluorescence intensity. The protocol: Fluorescence Decay Assay Against Human Cytomegalovirus
The antiviral activity of the compound against human cytomegalovirus (HCMV) was evaluated by determining the median effective concentration (EC50) value of the compound. The HCMV used in this assay was inserted with enhanced green fluorescent protein (EGFP) as a reporter gene by gene recombination, and thus the replication of the virus in cells can be reflected by the expression level of GFP. The inhibitory activity of the compound on the expression of GFP in HCMV was evaluated by determining the fluorescence intensity in the wells of different concentrations of the compound using a high-content cell analysis platform Acumen eX3.
Fluorescence Decay Assay Against HCMV
MRCS cells were inoculated into a black 96-well cell culture plate at a density of 20,000 cells per well, and then incubated overnight in a 37° C., 5% CO2 incubator. US3-6-EGFP-HCMV-AD169 viruses were added to the cell culture wells at a certain MOI (0.003 to 0.1), and incubated in a 37° C., 5% CO2 incubator for 3 hours. After adsorption of viruses, the medium containing viruses was pipetted out, and 200 μl of cell culture medium containing different concentrations of the compound (4-fold dilution, 6 test concentrations) was added. […] After 10 days of culture, the fluorescence intensity was detected with a high content cell analysis platform Acumen eX3 (TTP LabTech). […]

The nature of data set [2]: Plasma protein binding rate, equilibrium dialysis, human plasma. Type of data set: in vitro ADME. The conditions noted are these: equilibrium dialysis 37° C. 4 hours, read-out: Plasma Protein Binding PPB bound(%) (converted). The protocol:
Determination of the Plasma Protein Binding Rate of the Compound
The protein-binding rates of the test compound in the plasma of CD-1 mice, SD rats and human were evaluated by the equilibrium dialysis method. Compound 1 was diluted into the plasma of the above three species respectively to prepare samples with a final concentration of 2 μM. The samples were then added to a 96-well equilibrium dialysis device, and dialyzed against phosphate buffer solution at 37° C. for 4 hours. Warfarin was used as a control compound in the assay. The concentrations of the test compound and warfarin in the plasma and buffer were determined by LC-MS/MS method.
For orientation: Equilibrium dialysis compares concentrations on both sides of a semipermeable membrane.

In data set [3] the test system is HCMV (strain: GFP-AD169). Description: Human cytomegalovirus (HCMV) transplantation model in mice. Type of data set: in vivo. The conditions noted are these: NOD SCID mice, 8 mg/kg orally once per day. The protocol:
Human Cytomegalovirus (HCMV) Transplantation Model in Mice
Gelatin sponge containing HCMV was transplanted into mice. After 9 days of continuous administration, the gelatin sponge was collected for plaque detection. The anti-HCMV effect of the compound in this model was evaluated by detecting the amount of HCMV in the gelatin sponge.
The animals used in the assay were NOD SCID mice (purchased from Shanghai SLAC Laboratory Animal Co., Ltd.), 5 weeks old, and male. There were 5 animals in each group. The day on which the mice were subjected to gelatin sponge transplantation was set as day 0. Human foreskin fibroblasts (HFF, MOI=0.03) were infected with HCMV (strain: GFP-AD169) in advance, and then the HFF cells infected with HCMV were added to 1 cm^2 gelatin sponges and incubated for use. The animals were anesthetized by intraperitoneal injection of pentobarbital sodium at a dose of 75 mg/kg (10 ml/kg). After the animals entered the deep anesthesia state, the treated gelatin sponges were subcutaneously transplanted into the back of the mice. From day 1 to day 9, 8 mg/kg (10 ml/kg) of compound 1 was administered orally once per day. On the day 9, four hours after the administration, the gelatin sponges were taken out and digested, and then the plaques were detected.

Results on one molecule are retold here after patent publication US11174270B2, “Crystal form of 3,4-dihydrothieno[3,2-d]pyrimidine compound and preparation method thereof” (PHAENO THERAPEUTICS CO., LTD., priority 2018, dated 2021).

For orientation: EC50 means the concentration giving half of the maximal effect. Take `COc1cc(N2CCN(C3=Nc4ccsc4[C@H](CC(=O)O)N3c3cc(C(F)(F)F)ccc3OC)C[C@H]2C)ccn1` (single isomer, unassigned) [Compound 1]: the EC50 in data set [1] was found to be 0.2 nM. Further, the fraction unbound at 4 h, 2 μM in data set [2] was 0.06. In addition, in data set [3] (day 1 to day 9), the “body weights of the mice” value is “stable” and the clinical observations result is “no abnormality was found”. Also, the “decrease in HCMV viral load” value in data set [3] (gelatin sponge with HCMV-infected HFF, day 1 to day 9, plaque detection) worked out at 2.38 log PFU/ml.
